US20250230193A1, “CYCLIC COMPOUND HAVING SELECTIVE KRAS INHIBITORY EFFECT ON HRAS AND NRAS” (CHUGAI SEIYAKU KABUSHIKI KAISHA, priority 2022, published 2025)

Assays:
[1] = target: GDP-bound NRAS wild-type protein (Homo sapiens, UniProt P01111); test: Binding to NRAS by surface plasmon resonance (SPR), Single Cycle Kinetics; settings: GDP-bound NRAS wild-type vs GDP-bound KRAS wild-type, SPR
[2] = target: GDP-bound HRAS wild-type protein (Homo sapiens, UniProt P01112); test: Binding to HRAS by surface plasmon resonance (SPR), Single Cycle Kinetics; settings: GDP-bound HRAS wild-type vs GDP-bound KRAS wild-type, SPR
Sequence of GDP-bound HRAS wild-type protein (P01112 whole entry): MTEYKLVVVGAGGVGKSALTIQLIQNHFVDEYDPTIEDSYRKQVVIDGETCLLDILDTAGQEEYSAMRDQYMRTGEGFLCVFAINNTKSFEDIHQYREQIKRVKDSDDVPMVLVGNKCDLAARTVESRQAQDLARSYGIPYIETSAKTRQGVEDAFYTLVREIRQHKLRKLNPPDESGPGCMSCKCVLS

Sequence of GDP-bound NRAS wild-type protein (P01111 whole entry): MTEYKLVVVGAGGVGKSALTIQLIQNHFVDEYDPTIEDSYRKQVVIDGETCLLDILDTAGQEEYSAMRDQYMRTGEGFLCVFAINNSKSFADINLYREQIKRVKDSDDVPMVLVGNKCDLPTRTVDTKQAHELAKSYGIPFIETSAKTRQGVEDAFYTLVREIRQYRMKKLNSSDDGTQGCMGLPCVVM

Q: For `CCO[C@@H]1C[C@H]2C(=O)NC3(CCC3)C(=O)N(C)[C@@H](C3CCCC3)C(=O)N(C)[C@H](C(=O)N(C)CC)CC(=O)N(C)[C@@H](CC(C)C)C(=O)N[C@@H]([C@@H](C)CC)C(=O)N(C)CC(=O)N(C)[C@H]3C/C=C\CCN(C3=O)[C@@H](Cc3ccc(C)cc3)C(=O)N(C)CC(=O)N[C@@H](CCc3ccc(C(F)(F)F)c(OC)c3)C(=O)N2C1` [PP1910], which “NRAS/KRAS (ratio of KD value for NRAS to KD value for KRAS)” value ([1]; KD ratio) is on record?
A: A (a compound having 10 or more and less than 20 is denoted as A)

Q: And the “HRAS/KRAS (ratio of KD value for HRAS to KD value for KRAS)” value ([2]; KD ratio)?
A: B (a compound having 3 or more and less than 10 is denoted as B)

Q: How did the “NRAS/KRAS (ratio of KD value with respect to NRAS to KD value with respect to KRAS)” value ([1]; KD ratio) turn out when `CCO[C@@H]1C[C@H]2C(=O)NC3(CCC3)C(=O)N(C)[C@@H](C3CCCC3)C(=O)N(C)[C@H](C(=O)N(C)C)CC(=O)N(C)[C@@H](CC)C(=O)N[C@@H]([C@@H](C)CC)C(=O)N(C)CC(=O)N(C)[C@H]3CCCCCN(C3=O)[C@@H](Cc3ccc4ccsc4c3)C(=O)N(C)CC(=O)N[C@@H](CCc3cc(F)c(C(F)(F)F)c(F)c3)C(=O)N2C1` [PP0910] was run?
A: B (a compound having 3 or more and less than 10 is denoted as B)

Q: What about the “HRAS/KRAS (ratio of KD value with respect to HRAS to KD value with respect to KRAS)” value ([2]; KD ratio) of the same compound?
A: B (a compound having 3 or more and less than 10 is denoted as B)

Q: What does the source list for `CCC[C@H]1C(=O)N[C@@H]([C@@H](C)CC)C(=O)N(C2CC2)CC(=O)N(C)[C@H]2C/C=C\CCN(C2=O)[C@@H](CC2CCC(F)(F)CC2)C(=O)N(C)CC(=O)N[C@@H](CCc2ccc(C(F)(F)F)c(OC)c2)C(=O)N2C[C@@H](C)C[C@H]2C(=O)N(C)C2(CCC2)C(=O)N(C)[C@@H](C2CCCC2)C(=O)N(C)[C@H](C(=O)N(C)C)CC(=O)N1C` [PP2378]?
A: NRAS/KRAS (ratio of KD value with respect to NRAS to KD value with respect to KRAS) [1]: B (a compound having 3 or more and less than 10 is denoted as B); HRAS/KRAS (ratio of KD value with respect to HRAS to KD value with respect to KRAS) [2]: A (a compound having 10 or more and less than 20 is denoted as A)

Q: With `CC[C@H](C)[C@@H]1NC(=O)[C@H](CC(C)C)N(C)C(=O)C[C@@H](C(=O)N2CCOCC2)N(C)C(=O)[C@H](C2CCCC2)N(C)C(=O)C2(CCC2)NC(=O)[C@@H]2C[C@@H](OCC(C)C)CN2C(=O)[C@H](CCc2cc(F)c(C(F)(F)F)c(F)c2)NC(=O)CN(C)C(=O)[C@H](Cc2ccc(C(F)(F)F)cc2)N2CCCC[C@@H](C2=O)N(C)C(=O)CN(C)C1=O` [PP1160] as the compound, how does the “NRAS/KRAS (ratio of KD value with respect to NRAS to KD value with respect to KRAS)” value ([1]; KD ratio) read?
A: B (a compound having 3 or more and less than 10 is denoted as B)

Q: And the “HRAS/KRAS (ratio of KD value with respect to HRAS to KD value with respect to KRAS)” value ([2]; KD ratio)?
A: B (a compound having 3 or more and less than 10 is denoted as B)

Q: Which results are given for `CCO[C@@H]1C[C@H]2C(=O)NC3(CC(C)(C)C3)C(=O)N(C)[C@@H](C3CCCC3)C(=O)N(C)[C@H](C(=O)N3CCOCC3)CC(=O)N(C)[C@@H](COC)C(=O)N[C@@H]([C@@H](C)CC)C(=O)N(C)CC(=O)N(C)[C@H]3CCCCCN(C3=O)[C@@H](Cc3ccc(C(F)(F)F)cc3)C(=O)N(C)CC(=O)N[C@@H](CCc3cc(F)c(C(F)(F)F)c(F)c3)C(=O)N2C1` [PP0844]?
A: NRAS/KRAS (ratio of KD value with respect to NRAS to KD value with respect to KRAS) ([1]; KD ratio): B (a compound having 3 or more and less than 10 is denoted as B); HRAS/KRAS (ratio of KD value with respect to HRAS to KD value with respect to KRAS) ([2]; KD ratio): B (a compound having 3 or more and less than 10 is denoted as B)

Q: `C#CC[C@H]1C(=O)N[C@@H]([C@@H](C)CC)C(=O)N(C)CC(=O)N(C)[C@H]2C/C=C\CCN(C2=O)[C@@H](Cc2ccc(C(F)(F)F)cc2)C(=O)N(C)CC(=O)N[C@@H](CCc2ccc(C(F)(F)F)c(OC)c2)C(=O)N2C[C@@H](C)C[C@H]2C(=O)NC2(CC(C)(C)C2)C(=O)N(C)[C@@H](C2CCCC2)C(=O)N(C)[C@H](C(=O)N(C)CCC)CC(=O)N1C` [PP2057] was tested. Which “NRAS/KRAS (ratio of KD value with respect to NRAS to KD value with respect to KRAS)” value [1] did it give?
A: A (a compound having 10 or more and less than 20 is denoted as A)

Q: And the “HRAS/KRAS (ratio of KD value with respect to HRAS to KD value with respect to KRAS)” value [2]?
A: A (a compound having 10 or more and less than 20 is denoted as A)

Q: `CCC[C@H]1C(=O)N[C@@H]([C@@H](C)CC)C(=O)N(C)CC(=O)N(C)[C@H]2C/C=C\CCN(C2=O)[C@@H](Cc2ccc(C(F)(F)F)cc2)C(=O)N(C)CC(=O)N[C@@H](CCc2cc(F)c(C(F)(F)F)c(F)c2)C(=O)N2C[C@@H](C)C[C@H]2C(=O)NC2(CC(C)(C)C2)C(=O)N(C)[C@@H](C2CCCC2)C(=O)N(C)[C@H](C(=O)N(C)C)CC(=O)N1C` [PP1683] was tested. Which “NRAS/KRAS (ratio of KD value for NRAS to KD value for KRAS)” value ([1]; KD ratio) did it give?
A: A (a compound having 10 or more and less than 20 is denoted as A)

Q: What about the “HRAS/KRAS (ratio of KD value for HRAS to KD value for KRAS)” value ([2]; KD ratio) of the same compound?
A: A (a compound having 10 or more and less than 20 is denoted as A)

Q: Which “NRAS/KRAS (ratio of KD value with respect to NRAS to KD value with respect to KRAS)” value [1] does the source give for `CCC[C@H]1C(=O)N[C@@H]([C@@H](C)CC)C(=O)N(C)CC(=O)N(C)[C@H]2C/C=C\CCN(C2=O)[C@@H](Cc2ccc(C(F)(F)F)cc2)C(=O)N(C)CC(=O)N[C@@H](CCc2ccc(C(F)(F)F)c(OC)c2)C(=O)N2C[C@H](OCC)C[C@H]2C(=O)NC2(CC(C)(C)C2)C(=O)N(C)[C@@H](C(CC)CC)C(=O)N(C)[C@H](C(=O)N(C)C)CC(=O)N1C` [PP2160] here?
A: A (a compound having 10 or more and less than 20 is denoted as A)

Q: What about the “HRAS/KRAS (ratio of KD value with respect to HRAS to KD value with respect to KRAS)” value [2] of the same compound?
A: A (a compound having 10 or more and less than 20 is denoted as A)
